Reference: US6730787B1, “2,4Dioxo-5-arylidenimino-1,3-pyrimidines” (priority 2001, dated 2004)
Values after ≈ are worked out from the molar mass of the structure shown. Read-outs that look alike come from different tables or passages of the source.

Key:
[1] = system: mice; assay: Psychodepressant activity (behavioral depression score); format: in vivo; conditions: one hour after per oral 300 mg/kg; total 60 points, less than 40 = significant behavioral depression; 3 mice
Description: Each parameter scores 2 points for an each mouse that had unchanged behavior. The total point sum was 60 (2×10×3 mice). Reducing score to less than 40 one hour after dosing with a substance per oral (300 mg/kg) denoted significant behavioral depression. Haloperidol was utilized as a reference agent.

[2] = system: Mycobaciterium tuberculosis H37RV; assay: Antimicrobial effect, serial dilution method (MIC); format: cell-based, Mycobacterium tuberculosis; conditions: 72-hour cultivation at 37° C.
[3] = system: no-breed white mice; format: in vivo; conditions: observed 72 hours, 300 was the maximally utilized concentration
Description: Tested substance was introduced orally (in dose of 300 mg/kg) through a gastric tube or intraperitoneally (in dose of 100 mg/kg) to no-breed white mice with mass 18-20 g (each tested group consisted of 3 males and 3 females). Then the mouse state was observed during 72 hours. Absence of symptoms characteristic of toxic effects, or absence of animal death during the given time allows to make a conclusion that the toxicity of the tested substance is low. If acute toxicity effects are observed, the dose is reduced to find maximal tolerable dose.

[4] = system: Herpes Simplex virus of the type I (HSV-I/Leningrad/248/88); assay: Effect on Herpes Simplex virus: cytopathogenic effect in Vero cells; format: cell-based; conditions: for Quantity of the unchanged cells: number of cells in 100 visual fields
[5] = system: mice; assay: Analgesic activity (tail withdrawal from radiant heat); format: in vivo
Description: The time needed to draw back a tail placed under a directed source of radiant heat was estimated in a group of 3 mice. Prolongation of the response time by more than 50% after intraperitoneal dosing the substance (30 mg/kg) indicated analgesic activity. Analginum (2 mg/kg) was utilized as a reference agent.

[6] = system: rats; assay: Hepatoprotective activity (CCl4 liver damage, AlAT); format: in vivo
Description: CCl4 dissolved in 50% olive oil (1 ml/kg) was subcutaneously administrated to rats. Test substances were administrated perorally in a dose of 20 mg/kg 30 minutes before and 7 hours after the CCL4 administration. The activity of alanine-aminotranspherase (AlAT), which is a marker enzyme of liver parenchyma damage, was assessed twenty-four hours later. Reducing of enzyme amount by more than 30% relative to the control group was considered as evidence of hepatoprotective properties of the substance. Vitamin E in a dose of 100 mg/kg was used as a reference agent.

[7] = system: primary culture of human lymphocytes; assay: Interferon-inducing activity in primary culture of human lymphocytes (IFN-α immunoenzyme test); format: cell-based
Description: To obtain lymphocyte culture, fresh blood (within 12 hours after sampling) from healthy donors (not of group II) was used. To separate lymphocytes, heparinized blood obtained from healthy donor was centrifuged in a density gradient ficoll-verografin of […] in order to extract a fraction of immunocompetent cells. This fraction was selected and diluted with the nutrient medium RPMI-1640, containing 5% of fetal calf serum, 0.3 mg/ml of L-glutamin, 100 un/ml of penicillin, and 50 μg/ml of streptomycin. The concentration of lymphocytes was considered after dying them with methylene blue and calculation of cell number in a chamber of a hemocytometer. Initial solutions of the claimed compounds were diluted with the nutrient medium RPMI-1640 so that the final concentrations of the compounds which were obtained after introduction of lymphocyte suspension, constituted the raw: 100 μg/ml, 10 μg/ml, 1 μg/ml. The final concentration of lymphocytes in the induction mixture was 3×10^6 cell/ml.
Control and test samples were incubated for 24 hours at the temperature of 37° C. After incubation, the samples were centrifuged at 2,000 G to deposit cell elements, and IFN-containing supernatant was separate out of the samples; then the supernatant was analyzed for the quantitative content of IFN. Cell deposition was resuspended in the preceding volume of nutrient medium, colored with vital dye trypan blue, and cell number was counted in a chamber of a hemocytometer (as described above) to determine cytotoxic effect of the compounds.
Quantitative determination of the content of IFN in control and test samples was conducted using the immunoenzyme test system Pro Con IF2 Plus, that is intended for determination of IFN-α, which is produced by TOO <<Protein contour>>. The solid-phase immunoenzyme method, utilizing horse radish peroxidase as an indicator enzyme, was used to determine the quantity of interferon in the samples. Activity of the bonded peroxidase was measured using an automatic photometer for microplates with a microprocessor at the wavelength of 450 nm.
Based on the obtained results, a calibrating curve was formed, which allows to obtain data expressed in international units (IU) of activity, using the microprocessor of the automatic photometer. The results of the analysis are expressed in IU of activity of IFN per ml in the given induction system, which contains 3×10^6 lymphocyte/ml. Each test and control point was investigated in four parallels.
The obtained data were undergone a statistical analysis using t-criterion, and calculation of the confident interval of probability at p=0.05 was carried out. Coincidence between the results obtained in the parallel tests was analyzed.

[8] = system: C.trachomatis D323; assay: Effect on Chlamydia trachomatis in cell culture; format: cell-based; conditions: for percentage of cell protection from infection / Number of unchanged cells: 100 mg/l, 48 hours; for Number of unchanged cells: counted in 100 visual fields; for activity against chlamydia (in words): compared with Ciprofloxacin / compounds of Table 5
Description: The […] activity of the claimed compounds was studied in respect to C.trachomatis […], which is a standard strain contained in the collection of the department of microbiology of St. Petersburg State Pavlov Medical University. […] Cells were grown in flasks made of neutral glass in the medium RPMI-1640 containing 10% of fetal calf serum. The test was performed in flat-bottom flasks made of glass (non-toxic), that were supplied with cover glasses. The cells were introduced into the medium in the final concentration of 1×10^6 cell/ml. […] Simultaneously, tested compounds in a final concentration of 100 mg/l were added to the cells. The sample was centrifuged at 2400 G for 60 minutes at a room temperature and incubated at 37° C. for 2 hours. […] The samples were doubled using the medium without cycloheximide so as to exclude its effect on the investigated compounds. The samples were incubated for 48 hours in CO2-incubator. […] The effect of the compound was determined by analysis of the monolayer state and number of cells with CPI when compared with the control (cell culture infected with C.trachomatis […]); in doing so, the number of unchanged cells, that were counted in 100 visual fields obtained using the eyepiece-micrometer, was taken into consideration.

[9] = Mycobacterium tuberculosis, H37RV, read-out: MIC
[10] = compound 100 μg/ml, 36 hours of incubation

For `O=C(CCCN1CCC(O)(c2ccc(Cl)cc2)CC1)c1ccc(F)cc1` [Haloperidol, reference compound], which Point number [1] is on record?
The Point number was 27.

`CC[C@@H](CO)NCCN[C@@H](CC)CO` [Ethambutol] was tested. Which MIC [2, 9] did it give?
The MIC was 5 µg/mL (≈ 24.5 µM).

For `O=c1[nH]cc(N=Cc2cc(Br)cc(Br)c2O)c(=O)[nH]1` [XIII, 2,4-dioxo-5-(2-hydroxy-3,5-dibromobenzylidene) imino-1,3-pyrimidine], which “Maximal tolerable dose: Concentration of tested compounds (mg/l) at oral introducing” value (“Maximal tolerable dose: Concentration” for short) [3] is on record?
The value was 300 mg/L.

And the “% of protection” value [4, 10]?
Its value is 80%.

What about the “Quantity of the unchanged cells” value [4, 10] of the same molecule?
Its value is 8000.

Which results are given for `O=c1[nH]cc(N=Cc2cc([N+](=O)[O-])ccc2O)c(=O)[nH]1` [XIX, 2,4-dioxo-5-(2-hydroxy-5-nitrobenzylidene) imino-1,3-pyrimidine]?
Maximal tolerable dose: Concentration of tested compounds (mg/l) at oral introducing [3]: 300 mg/L; % of protection [4, 10]: 80%; Quantity of the unchanged cells [4, 10]: 8000

Which MIC [2] does the source give for `O=c1[nH]cc(N=Cc2cc(Cl)cc(Cl)c2O)c(=O)[nH]1` [XII, 2,4-dioxo-5-(2-hydroxy-3,5-dichlorobenzylidene) imino-1,3-pyrimidine] here?
The MIC was 100 µg/mL (≈ 333 µM).

What about the “Maximal tolerable dose: Concentration” value [3] of the same molecule?
Its value is 300 mg/L.

What about the “Prolongation of the latent period of response (%)” value ([5]; intraperitoneal 30 mg/kg, more than 50% = analgesic activity) of the same molecule?
The value was 96%.

What about the Point number [1] of the same molecule?
The Point number was 35.

And the “% of reducing AIAT” value ([6]; perorally 20 mg/kg 30 minutes before and 7 hours after CCl4, assessed 24 hours later, relative to control group)?
The value was −48%.

What about the “% of protection” value [4, 10] of the same molecule?
The value was 90%.

What about the “Quantity of the unchanged cells” value [4, 10] of the same molecule?
Its value is 9000.

How did the MIC [2, 9] turn out when `CC1COc2c(N3CCN(C)CC3)c(F)cc3c(=O)c(C(=O)O)cn1c23` (stereo not drawn) [Ofloxacin] was run?
The MIC was 0.5 µg/mL (≈ 1.38 µM).

Which MIC [2] does the source give for `O=c1[nH]cc(N=Cc2cc(I)cc(I)c2O)c(=O)[nH]1` [XXIV, 2,4-dioxo-5-(2-hydroxy-3,5-diiodobenzylidene) imino-1,3-pyrimidine] here?
The MIC was 100 µg/mL (≈ 207 µM).

And the “Maximal tolerable dose: Concentration” value [3]?
The value was 300 mg/L.

Vitamin E [reference compound] was tested. Which “% of reducing AIAT” value ([6]; Vitamin E 100 mg/kg, reference agent) did it give?
Its value is −30%.

For `O=c1[nH]cc(N=Cc2ccccc2[N+](=O)[O-])c(=O)[nH]1` [XVIII, 2,4-dioxo-5-(2-nitrobenzylidene) imino-1,3-pyrimidine], which MIC [2] is on record?
Its MIC is 100 µg/mL (≈ 384 µM).

What about the “Maximal tolerable dose: Concentration” value [3] of the same molecule?
Its value is 300 mg/L.

Which “% of protection” value ([4]; Acyclovir 30 μg/ml) does the source give for `Nc1nc2c(ncn2COCCO)c(=O)[nH]1` [Acyclovir, reference compound] here?
The value was 80%.

And the “Quantity of the unchanged cells” value ([4]; Acyclovir 30 μg/ml)?
Its value is 8000.

How did the MIC [2, 9] turn out when `NNC(=O)c1ccncc1` [Isoniazid] was run?
The MIC was 0.1 µg/mL (≈ 0.729 µM).

With `COc1cc(C=Nc2c[nH]c(=O)[nH]c2=O)ccc1O` [XV, 2,4-dioxo-5-(4-hydroxy-3-methoxybenzylidene) imino-1,3-pyrimidine] as the molecule, how does the “Maximal tolerable dose: Concentration” value [3] read?
Its value is 300 mg/L.

And the “Content of IFN in induction mixture after 24-hour incubation” value (“Content of IFN in induction mixture” below) ([7]; substance 1 mg/l)?
Its value is 4,5 ± 1,6 IU/3 × 10^4 lymph./ml.

What about the “Content of IFN in induction mixture” value ([7]; substance 10 mg/l) of the same molecule?
The value was 54,2 ± 1,8 IU/3 × 10^4 lymph./ml.

What about the “Content of IFN in induction mixture” value ([7]; substance 100 mg/l) of the same molecule?
The value was 105 ± 2 IU/3 × 10^4 lymph./ml.

Which “Maximal tolerable dose: Concentration” value [3] does the source give for `O=c1[nH]cc(N=Cc2ccc(Cl)cc2Cl)c(=O)[nH]1` [XI, 2,4-dioxo-5-(2,4-dichlorobenzylidene) imino-1,3-pyrimidine] here?
Its value is 300 mg/L.

And the “percentage of cell protection from infection” value [8]?
The value was 55%.

What about the “Number of unchanged cells” value [8] of the same molecule?
The value was 7.700.

And the “activity against chlamydia (in words)” value [8]?
The value was “marked activity against chlamydia”.

For `O=c1[nH]cc(N=Cc2cc(Br)ccc2O)c(=O)[nH]1` [VIII, 2,4-dioxo-5-(2-hydroxy-5-bromobenzylidene) imino-1,3-pyrimidine], which MIC [2] is on record?
The MIC was 100 µg/mL (≈ 322 µM).

What about the “Maximal tolerable dose: Concentration” value [3] of the same molecule?
The value was 300 mg/L.

`Cc1c(N(C)CS(=O)(=O)[O-])c(=O)n(-c2ccccc2)n1C.[Na+]` [Analginum, reference compound] was tested. Which “Prolongation of the latent period of response (%)” value ([5]; Analginum 2 mg/kg, reference agent) did it give?
The value was 86%.

For `CN(C)c1ccc(C=Nc2c[nH]c(=O)[nH]c2=O)cc1` [XXV, 2,4-dioxo-5-(4-dimethylamino-benzylidene) imino-1,3-pyrimidine], which “Maximal tolerable dose: Concentration” value [3] is on record?
Its value is 300 mg/L.

And the “percentage of cell protection from infection” value [8]?
Its value is 55%.

And the “Number of unchanged cells” value [8]?
Its value is 7.700.

And the “activity against chlamydia (in words)” value [8]?
The value was “marked activity against chlamydia”.

`O=c1[nH]cc(N=Cc2ccccc2Cl)c(=O)[nH]1` [IV, 2,4-dioxo-5-(2-chlorobenzylidene) imino-1,3-pyrimidine] was tested. Which “Maximal tolerable dose: Concentration” value [3] did it give?
The value was 300 mg/L.

What about the “Content of IFN in induction mixture” value ([7]; substance 1 mg/l) of the same molecule?
The value was 15,2 ± 0,3 IU/3 × 10^4 lymph./ml.

And the “Content of IFN in induction mixture” value ([7]; substance 10 mg/l)?
Its value is 62,5 ± 1,3 IU/3 × 10^4 lymph./ml.

What about the “Content of IFN in induction mixture” value ([7]; substance 100 mg/l) of the same molecule?
The value was 123,6 ± 0,5 IU/3 × 10^4 lymph./ml.

With `[H]/N=C(/N)N[C@H]1[C@H](O)[C@@H](O)[C@H](O[C@@H]2O[C@@H](C)[C@](O)(C=O)[C@H]2O[C@@H]2O[C@@H](CO)[C@H](O)[C@@H](O)[C@@H]2NC)[C@@H](N/C(N)=N\[H])[C@@H]1O` [Streptomycin] as the molecule, how does the MIC [2, 9] read?
The MIC was 0.2 µg/mL (≈ 0.344 µM).

How did the MIC [2] turn out when Rifampycin was run?
The MIC was 0.05 µg/mL.
